{"source": "patent US20080261929A1", "about": "“COMBINATION OF PROGESTERONE-RECEPTOR ANTAGONIST TOGETHER WITH AN AROMATASE INHIBITOR FOR USE IN BRCA MEDIATED DISEASES” (priority 2007, published 2008)", "key": {"[1]": {"tested_on": "mammary tumors", "conditions": "mice with rodent BRCA1- or BRCA2 inactivated in mammary glands; Poole et al., Science 2006; cited from earlier work"}, "[2]": {"conditions": "administered orally; cited from earlier work"}, "[3]": {"molecular_target": "T1, progesterone receptor (Homo sapiens, UniProt P06401)", "T1 sequence (P06401 1-933)": "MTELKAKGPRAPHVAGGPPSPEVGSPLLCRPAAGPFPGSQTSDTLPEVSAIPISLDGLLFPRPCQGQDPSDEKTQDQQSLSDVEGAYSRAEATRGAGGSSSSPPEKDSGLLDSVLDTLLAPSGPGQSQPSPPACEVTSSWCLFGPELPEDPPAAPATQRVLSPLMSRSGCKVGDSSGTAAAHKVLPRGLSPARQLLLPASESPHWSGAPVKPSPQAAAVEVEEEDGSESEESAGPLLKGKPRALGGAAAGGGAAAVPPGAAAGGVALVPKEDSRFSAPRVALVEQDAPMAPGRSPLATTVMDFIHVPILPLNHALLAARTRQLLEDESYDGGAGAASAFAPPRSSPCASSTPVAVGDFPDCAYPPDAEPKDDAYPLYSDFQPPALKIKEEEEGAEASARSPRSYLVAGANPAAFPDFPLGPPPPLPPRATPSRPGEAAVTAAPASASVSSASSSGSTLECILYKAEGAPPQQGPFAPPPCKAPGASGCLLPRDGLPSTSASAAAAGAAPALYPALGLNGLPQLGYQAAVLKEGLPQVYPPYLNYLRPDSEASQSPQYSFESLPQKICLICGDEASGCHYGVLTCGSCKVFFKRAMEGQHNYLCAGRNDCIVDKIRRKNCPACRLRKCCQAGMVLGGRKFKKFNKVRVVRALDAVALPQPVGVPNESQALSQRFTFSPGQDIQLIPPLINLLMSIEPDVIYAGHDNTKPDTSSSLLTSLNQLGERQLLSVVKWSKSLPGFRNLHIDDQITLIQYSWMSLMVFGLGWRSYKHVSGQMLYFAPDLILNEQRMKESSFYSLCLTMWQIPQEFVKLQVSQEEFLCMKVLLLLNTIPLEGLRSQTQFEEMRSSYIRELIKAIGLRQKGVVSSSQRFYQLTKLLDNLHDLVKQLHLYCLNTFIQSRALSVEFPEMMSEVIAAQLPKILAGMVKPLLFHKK", "assay": "Progesterone receptor protein expression/stability after knock down of BRCA1 (Example 3)", "description": "MCF-7 and T47D mammary cells stabely transfected with the aromatse gene. These cells grow with androstenedione stimulus in vivo. These cells were stabely transfected with shRNA knocking down the BRCA1 and BRCA2 gene. Cell growth in vivo in comparison to untransfected and mock transfected cells was compared. In a second step cells were implanted in immunodeficient nude mice and stimulated either with progesterone and/or with androstenedione. […] The effects on progesterone receptor protein expression were further investigated."}, "[4]": {"tested_on": "tumor cells", "assay": "Apoptosis of tumor cells"}, "[5]": {"molecular_target": "T1, progesterone receptor", "conditions": "cited from earlier work"}, "[6]": {"molecular_target": "T1, progesterone receptor", "assay": "Progesterone receptor protein expression/stability after siRNA knock down of BRCA1 (Example 1)", "assay_type": "cell-based", "procedure": "MCF-7 and T47D mammary cells were stabely transfected with the aromatse gene. These cells grow with androstenedione stimulus. These cells were treated with siRNA knocking down the BRCA1 and BRCA2 gene.\nIn a second step cells were stimulated either with progesterone and/or with androstenedione. […] The effects on progesterone receptor protein expression were further investigated."}}, "note": "Like-named read-outs stand apart in the source and are kept apart here.", "data": [{"compound": "CC#C[C@]1(O)CC[C@H]2[C@@H]3CCC4=CC(=O)CCC4=C3[C@@H](c3ccc(N(C)C)cc3)C[C@@]21C", "note": "[mifepristone]", "values": [{"measurement": "Development of mammary tumors", "setting": "[1]", "value": "blocks the development of mammary tumors"}, {"measurement": "Bioavailability", "setting": "[2]", "value": "poor bioavailability"}]}, {"compound": "CC(=O)c1ccc([C@H]2C[C@@]3(C)[C@@H](CC[C@@]3(O)C(F)(F)C(F)(F)F)[C@@H]3CCC4=CC(=O)CCC4=C32)cc1", "note": "[11β-(4-acetylphenyl)-17β-hydroxy-17α-(1,1,2,2,2-pentafluoroethyl)-estra-4,9-dien-3-one]", "values": [{"measurement": "Effect on increased stability of progesterone receptor after BRCA1 knock down", "setting": "[3]", "value": "could be antagonized"}, {"measurement": "Apoptosis of tumor cells", "setting": "[4]", "value": "increased apoptosis of tumor cells"}, {"measurement": "Antiprogestagenic activity", "setting": "[5]; Fuhrmann et al., J. Med. Chem. 2000", "value": "high antiprogestagenic activity"}, {"measurement": "Other endocrinological (side) effects, e.g. androgen, estrogen or antiglucocorticoid activity", "setting": "[5]", "value": "only very weak or no endocrine side effects"}, {"measurement": "Other endocrinological (side) effects, e.g. androgen, estrogen or antiglucocorticoid activity", "setting": "[5]; listed as ZK230211", "value": "little or no other endocrinological effects"}, {"measurement": "Effect on increased stability of progesterone receptor after BRCA1 knock down", "setting": "[6]", "value": "could be antagonized"}]}]}
